# Reference: US5783402A, “Method of identifying ligands and anatgonists of G-protein coupled receptor” (The United States of America as represented by the …, priority 1996, dated 1998)
# Legend:
# [1] = tested on: dopamine D2L receptor; conditions: 10 μM agonist, 0.5 μM forskolin, IBMX, 6 hours
# Excerpt: Data are mean±S.D. from one representative experiment. […] Data are mean±S.D. from one representative experiment. […] Data are mean±S.D. from one representative experiment.
# Transfection of cells. Cells were transfected by the calcium phosphate transfection protocol of Chen and Okayama. For each plasmid DNA preparation, the amount of DNA required for formation of an optimum calcium phosphate-DNA precipitate varies; thus, a dose response study is desirable. […]
# β-Galactosidase microassay. β-galactosidase activity was measured with a microplate reader (Molecular Devices, Palo Alto). […]
# All the steps in the microassay were carried out at room temperature. […] After an additional 10 minutes, 24 μl of ONPG (4 mg/ml in assay buffer; prepared daily) was added, and the optical density per well at 405 nm was determined with a plate reader. Readings were taken through 1.5 OD at 405 nm, within the linear portion of the color development. The initial rates, expressed as mOD/minute, are linearly related to β-galactosidase enzyme concentration over an enzyme concentration range of 0.1 to 100 mU (one unit hydrolyzes one micromole of ONPG per minute at 25 degrees, pH 7.5). […]
# [2] = tested on: rat cannabinoid receptor; assay: Inhibition of forskolin-mediated induction of β-galactosidase in cannabinoid receptor transfected LVIP2.OZc cells; assay type: cell-based; conditions: 1 μM CP55940, 0.5 μM forskolin, IBMX, 6 hours
# Experimental: Cells were exposed for 6 hours to medium containing 0.5 mM IBMX, 0.5 mM BSA and 0.5 μM forskolin ±1 μM CP55940.
# One hundred microliters of medium containing IBMX/ascorbic acid or forskolin (1 μM)/IBMX/ascorbic acid were added to control wells. […] Each set of conditions was carried out in quadruplicate. After an eight hour exposure to ligand the cells were washed with 200 μl phosphate buffered saline and β-galactosidase activity was assayed.
# β-Galactosidase microassay. β-galactosidase activity was measured with a microplate reader (Molecular Devices, Palo Alto).
# All the steps in the microassay were carried out at room temperature. The assay buffer is composed of 100 mM sodium phosphate, 2 mM MgSO4, 0.1 mM MnCl2, pH 8.0. The adherent cells were washed with PBS, the plate drained and 25 μl/well of hypotonic lysis buffer added to each well, (dilute 1 part buffer with 9 parts water). […] After an additional 10 minutes, 24 μl of ONPG (4 mg/ml in assay buffer; prepared daily) was added, and the optical density per well at 405 nm was determined with a plate reader. Readings were taken through 1.5 OD at 405 nm, within the linear portion of the color development. The initial rates, expressed as mOD/minute, are linearly related to β-galactosidase enzyme concentration over an enzyme concentration range of 0.1 to 100 mU (one unit hydrolyzes one micromole of ONPG per minute at 25 degrees, pH 7.5).
# [3] = tested on: endogenous receptors for adenosine in LVIP2.OZc cells; assay: β-galactosidase (ONPG) induction in untransfected LVIP2.OZc cells by NECA (endogenous adenosine receptors); assay type: cell-based, mouse
# Experimental: (§1) FIG. 1. Detection of β-galactosidase of color development of o-nitrophenol. LVIP2.OZc cells were exposed for 8 hours to control medium (containing 0.5 mM IBMX) (.quadrature.), or control medium containing 0.5 μM forskolin (.cndot.), or control medium containing 1 μM (.box-solid.) or 10 NECA (.tangle-solidup.). After cell lysis and addition of the substrate ONPG, enzyme activity was measured as optical density at 405 nm at various time intervals. Data are mean±S.D. taken from one experiment that is representative of several.
# (§2) FIG. 2. Induction of β-galactosidase as a response to length of ligand exposure. LVIP2.OZc cells were incubated for 1, 2, 4, 6, 8, 12, 15 and 18 hours in control medium (containing 0.5 mM IBMX) (.quadrature.), or control medium containing 0.5 μM forskolin (.cndot.), or control medium containing 1 μM NECA (.box-solid.), or control medium containing 1 μM PGE2 (.tangle-solidup.). Data are mean±S.D. from one representative experiment.
# (§3) FIG. 3. Induction of β-galactosidase as a response to different doses of ligands. LVIP2.OZc cells were treated for 8 hours with control medium (containing 0.5 mM IBMX), and 0.1 or 0.2 or 0.5 or 1 μM forskolin (.cndot.), control medium and 0.1 or 0.5 or 1 or 10 μM NECA (.box-solid.), control medium containing 0.1 or 0.5 or 1 or 10 μM PGE2 (.tangle-solidup.). Data are mean±S.D. from a representative experiment.
# (§4) Care should be taken to avoid foaming.
# Therefore, a quantitative assay was developed for the cAMP-mediated increase in β-galactosidase activity. This assay was performed in 96 well plates after solubilization of the cells and incubation with the substrate ONPG. Thus, the change in optical density over a defined period of time was directly proportional to the level of β-galactosidase activity. The optical density increased linearly with time up to 1.5. The LVIP2.OZc cells were determined to contain endogenous […] -coupled receptors for PGE (prostaglandin E2) and adenosine. In pilot studies, untransfected cells were treated for 8 hours with IBMX in the presence or absence of NECA [5'-(N-ETHYLCARBOXAMIDO)-ADENOSINE, adenosine A2 receptor agonist], or forskolin, to increase intracellular cAMP levels (FIG. 1). […] The enzyme levels generated by 1 μM NECA, 10 μM NECA, and 0.5 μM forskolin were determined to be 8, 30, and 48 -fold higher, respectively, than in the IBMX control cells. The differences were discernible by visual examination after 3 to 6 hours.
# In pilot studies, cells were exposed to IBMX in the presence or absence for forskolin (0.5 μM), NECA (1 μM), or prostaglandin E2 (1 μM) for 2, 4, 6, 8, 15, or 18 hours and their β-galactosidase activities measured. […] Dose-response data (FIG. 3) were obtained by treating cells with forskolin, NECA, or PGE2 for 8 hours. […]
# [4] = tested on: endogenous receptors for PGE (prostaglandin E2) in LVIP2.OZc cells; assay: β-galactosidase (ONPG) induction in untransfected LVIP2.OZc cells by PGE2 (endogenous PGE receptors); assay type: cell-based, mouse; conditions: 8 hours, IBMX
# Experimental: as §2
# FIG. 3. Induction of β-galactosidase as a response to different doses of ligands. LVIP2.OZc cells were treated for 8 hours with control medium (containing 0.5 mM IBMX), and 0.1 or 0.2 or 0.5 or 1 μM forskolin (.cndot.), control medium and 0.1 or 0.5 or 1 or 10 μM NECA (.box-solid.), control medium containing 0.1 or 0.5 or 1 or 10 μM PGE2 (.tangle-solidup.). […]
# (§5) Therefore, a quantitative assay was developed for the cAMP-mediated increase in β-galactosidase activity. […] The LVIP2.OZc cells were determined to contain endogenous […] -coupled receptors for PGE (prostaglandin E2) and adenosine. […] The enzyme levels generated by 1 μM NECA, 10 μM NECA, and 0.5 μM forskolin were determined to be 8, 30, and 48 -fold higher, respectively, than in the IBMX control cells. […]
# (§6) In pilot studies, cells were exposed to IBMX in the presence or absence for forskolin (0.5 μM), NECA (1 μM), or prostaglandin E2 (1 μM) for 2, 4, 6, 8, 15, or 18 hours and their β-galactosidase activities measured. […]
# [5] = tested on: LVIP2.OZc cells; assay: X-gal staining of LVIP2.OZc cells (blue positive cells) after forskolin + IBMX; assay type: cell-based, mouse; conditions: forskolin 5 μM + IBMX 0.5 mM, 6 to 18 hours
# Experimental: Hygromycin-resistant Ltk^- clones were screened for induction of β-galactosidase after addition of forskolin (10 μM) and IBMX (0.5 μM).
# In preliminary experiments, forskolin (5 μM) and IBMX (0.5 mM) was used to increase cyclic AMP levels. […] Next, the cells were transfected with human β2 -adrenergic receptor cDNA in the pcD expression vector. […] Ascorbic acid was added to prevent oxidation of isoproterenol.
# [6] = tested on: LVIP2.OZc cells; assay: β-galactosidase (ONPG) induction in untransfected LVIP2.OZc cells by forskolin; assay type: cell-based, mouse; conditions: 8 hours
# Experimental: as §1, §2, §3, §4, §5, §6
smiles,measurement,setting,value
NCCc1ccc(O)c(O)c1 [dopamine],inhibition of forskolin-stimulated increase of β-galactosidase activity,[1],Significant inhibition
CCCCCCC(C)(C)c1ccc([C@@H]2C[C@H](O)CC[C@H]2CCCO)c(O)c1 [CP55940],decrease of forskolin stimulated activity,[2],15%
"CCNC(=O)[C@H]1O[C@@H](n2cnc3c(N)ncnc32)[C@H](O)[C@@H]1O [NECA, 5'-(N-ETHYLCARBOXAMIDO)-ADENOSINE]",enzyme level relative to IBMX control cells,"[3]; 1 μM NECA, 8 hours, IBMX",8 -fold
same,concentration required to achieve maximum enzyme induction,"[3]; 8 hours, IBMX",10 µM
same,β-galactosidase activity versus IBMX-treated control cells (in words),"[3]; 8 hours, IBMX",considerably higher levels
same,enzyme level relative to IBMX control cells,"[3]; lvip2.ozc cells, 8 h, 10 µM",30 -fold
"CCCCC[C@H](O)/C=C/[C@H]1[C@H](O)CC(=O)[C@@H]1C/C=C\CCCC(=O)O [PGE2, prostaglandin E2]",concentration required to achieve maximum enzyme induction,[4],10 µM
C=C[C@@]1(C)CC(=O)[C@]2(O)[C@@]3(C)[C@@H](O)CCC(C)(C)[C@@H]3[C@H](O)[C@H](OC(C)=O)[C@@]2(C)O1 [forskolin],cells that developed a blue color,[5],More than 90%
same,β-galactosidase activity versus IBMX-treated control cells (in words),[6],considerably higher levels
same,concentration producing maximum effect,[6]; IBMX,0.5 µM
same,fold induction at 0.5 µM,"[6]; Mus musculus, 0.5 μM forskolin, IBMX, read-out: enzyme level relative to IBMX control cells",48
